What is called melting point is the temperature, or range, at which the solid turns liquid. Molecule `Cc1ccc(NC(=O)c2ccsc2)cc1-c1nc(N(C)C)nc2c1CNC(=O)N2c1c(F)cccc1F` [Example 12, N-{3-[8-(2,6-difluorophenyl)-2-(dimethylamino)-7-oxo-5,6,7,8-tetrahydropyrimido[4,5-d]pyrimidin-4-yl]-4-methylphenyl}-3-thiophenecarboxamide] showed a melting point of 214 to 215 °C. Consider `CCOc1nc(-c2cc(NC(=O)c3ccsc3)ccc2C)c2c(n1)N(c1c(F)cccc1F)C(=O)NC2` [Example 13, N-{3-[8-(2,6-difluorophenyl)-2-(ethyloxy)-7-oxo-5,6,7,8-tetrahydropyrimido[4,5-d]pyrimidin-4-yl]-4-methylphenyl}-3-thiophenecarboxamide], for which the melting point is 199 to 202 °C (dec.).

Turning to `CNc1nc(-c2cc(NC(=O)c3ccsc3)ccc2C)c2c(n1)N(c1c(F)cccc1F)C(=O)NC2` [Example 14, N-{3-[8-(2,6-difluorophenyl)-2-(methylamino)-7-oxo-5,6,7,8-tetrahydropyrimido[4,5-d]pyrimidin-4-yl]-4-methylphenyl}-3-thiophenecarboxamide], the melting point was 203 to 207 °C (dec.).

As to `Cc1ccc(C(=O)NCc2ccccc2)cc1-c1nc(NC2CC(C)(C)NC(C)(C)C2)nc2c1CNC(=O)N2c1c(F)cccc1F` [Example 16, 3-{8-(2,6-Difluorophenyl)-7-oxo-2-[(2,2,6,6-tetramethyl-4-piperidinyl)amino]-5,6,7,8-tetrahydropyrimido[4,5-d]pyrimidin-4-yl}-4-methyl-N-(phenylmethyl)benzamide], the melting point is 160 to 165 °C (dec.). With `Cc1ccc(C(=O)NCc2ccccc2)cc1-c1nc(NCCN(C)C)nc2c1CNC(=O)N2c1c(F)cccc1F` [Example 18, 3-(8-(2,6-Difluorophenyl)-2-{[2-(dimethylamino)ethyl]amino}-7-oxo-5,6,7,8-tetrahydropyrimido[4,5-d]pyrimidin-4-yl)-4-methyl-N-(phenylmethyl)benzamide], the melting point was in the range of 148 to 150 °C. As for `Cc1ccc(C(=O)NCc2ccccc2)cc1-c1nc(NCCNC(C)C)nc2c1CNC(=O)N2c1c(F)cccc1F` [Example 20, 3-[8-(2,6-Difluorophenyl)-2-({2-[(1-methylethyl)amino]ethyl}amino)-7-oxo-5,6,7,8-tetrahydropyrimido[4,5-d]pyrimidin-4-yl]-4-methyl-N-(phenylmethyl)benzamide], the melting point was 133 to 137 °C. On to `Cc1ccc(C(=O)NCc2ccccc2)cc1-c1nc(NC2CCN(C)CC2)nc2c1CNC(=O)N2c1c(F)cccc1F` [Example 22, 3-{8-(2,6-Difluorophenyl)-2-[(1-methyl-4-piperidinyl)amino]-7-oxo-5,6,7,8-tetrahydropyrimido[4,5-d]pyrimidin-4-yl}-4-methyl-N-(phenylmethyl)benzamide], for which the melting point was 152 to 154 °C (dec.). In the case of `CCOc1nc(-c2cc(NC(=O)c3ccc(C)c(F)c3)ccc2C)c2c(n1)N(c1c(F)cccc1F)C(=O)NC2` [Example 25, N-{3-[8-(2,6-difluorophenyl)-2-(ethyloxy)-7-oxo-5,6,7,8-tetrahydropyrimido[4,5-d]pyrimidin-4-yl]-4-methylphenyl}-3-fluoro-4-methylbenzamide], the melting point was 257.3 to 262.5 °C. `Cc1ccc(C(=O)Nc2ccc(C)c(-c3nc(NC4CCNCC4)nc4c3CNC(=O)N4c3c(F)cccc3F)c2)cc1F` [Example 27(b), N-{3-[8-(2,6-difluorophenyl)-7-oxo-2-(4-piperidinylamino)-5,6,7,8-tetrahydropyrimido[4,5-d]pyrimidin-4-yl]-4-methylphenyl}-3-fluoro-4-methylbenzamide]: the melting point was 218 to 223.5 °C. For `Cc1ccc(C(=O)NCc2ccccc2)cc1-c1nc(N2CCC(N(C)C(=O)OC(C)(C)C)CC2)nc2c1CNC(=O)N2c1c(F)cccc1F` [Example 147, 1,1-dimethylethyl {-[8-(2,6-difluorophenyl)-4-(2-methyl-5-{[(phenylmethyl)amino]carbonyl}phenyl)-7-oxo-5,6,7,8-tetrahydropyrimido[4,5-d]pyrimidin-2-yl]-4-piperidinyl}methylcarbamate], the melting point is 146 to 150 °C (dec.). With `Cc1ccc(C(=O)N(C)C)cc1-c1nc(NCCN(C)C)nc2c1CNC(=O)N2c1c(F)cccc1F` [Example 152, 3-(8-(2,6-difluorophenyl)-2-{[2-(dimethylamino)ethyl]amino}-7-oxo-5,6,7,8-tetrahydropyrimido[4,5-d]pyrimidin-4-yl)-NN,4-trimethylbenzamide] the figure was 138 to 142 °C. The molecule `Cc1ccc(C(=O)N(C)C)cc1-c1nc(NCCNC(C)C)nc2c1CNC(=O)N2c1c(F)cccc1F` [Example 153, 3-[8-(2,6-difluorophenyl)-2-({2-[(1-methylethyl)amino]ethyl}amino)-7-oxo-5,6,7,8-tetrahydropyrimido[4,5-d]pyrimidin-4-yl]-N,N,4-trimethylbenzamide] gave a melting point of 130 to 133 °C. `Cc1ccc(C(=O)N(C)C)cc1-c1nc(N(C)CCCN(C)C)nc2c1CNC(=O)N2c1c(F)cccc1F` [Example 154, 3-{8-(2,6-difluorophenyl)-2-[[3-(dimethylamino)propyl](methyl)amino]-7-oxo-5,6,7,8-tetrahydropyrimido[4,5-d]pyrimidin-4-yl}-N,N,4-trimethylbenzamide] displayed a melting point of 114 to 118 °C.

The molecule `Cc1ccc(C(=O)N(C)C)cc1-c1nc(NC2CCN(C)CC2)nc2c1CNC(=O)N2c1c(F)cccc1F` [Example 155, 3-{8-(2,6-difluorophenyl)-2-[(1-methyl-4-piperidinyl)amino]-7-oxo-5,6,7,8-tetrahydropyrimido[4,5-d]pyrimidin-4-yl}-N,N,4-trimethylbenzamide] yielded a melting point of 163 to 165 °C. Molecule `CCN(CC)C(=O)c1ccc(C)c(-c2nc(NC3CCN(C)CC3)nc3c2CNC(=O)N3c2c(F)cccc2F)c1` [Example 159, 3-{8-(2,6-difluorophenyl)-2-[(1-methyl-4-piperidinyl)amino]-7-oxo-5,6,7,8-tetrahydropyrimido[4,5-d]pyrimidin-4-yl}-N,N-diethyl-4-methylbenzamide] showed a melting point of 165 to 169 °C.

As to `CCN(CC)C(=O)c1ccc(C)c(-c2nc(NCCNC(C)C)nc3c2CNC(=O)N3c2c(F)cccc2F)c1` [Example 160, 3-[8-(2,6-difluorophenyl)-2-({2-[(1-methylethyl)amino]ethyl}amino)-7-oxo-5,6,7,8-tetrahydropyrimido[4,5-d]pyrimidin-4-yl]-N,N-diethyl-4-methylbenzamide], the melting point was 89 to 91 °C.

As for `CCN(CC)C(=O)c1ccc(C)c(-c2nc(N(C)CCCN(C)C)nc3c2CNC(=O)N3c2c(F)cccc2F)c1` [Example 161, 3-{8-(2,6-difluorophenyl)-2-[[3-(dimethylamino)propyl](methyl)amino]-7-oxo-5,6,7,8-tetrahydropyrimido[4,5-d]pyrimidin-4-yl}-N,N-diethyl-4-methylbenzamide], the melting point was 106 to 108 °C. As for `CCN(CC)C(=O)c1ccc(C)c(-c2nc(N3CCN(C)CC3)nc3c2CNC(=O)N3c2c(F)cccc2F)c1` [Example 162, 3-[8-(2,6-difluorophenyl)-2-(4-methyl-1-piperazinyl)-7-oxo-5,6,7,8-tetrahydropyrimido[4,5-d]pyrimidin-4-yl]-N,N-diethyl-4-methylbenzamide], the melting point was 201 to 205 °C (dec.).

These data come from patent publication US20090318424A1, “NOVEL COMPOUNDS” (priority 2006, published 2009).
